Assay [1] concerns the target human Adenosine A1 receptor (Homo sapiens (Human), UniProt P30542). The assay can be described thus: Adenosine receptor TR-FRET binding assay (A1). Particulars: inhibition of binding of 100 nM CA200645, CHO cell membranes. In short, it runs like this: (§1)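 CHO cell membranes carrying terbium-tagged human A1, A2a, A2b or A3 receptors were incubated 2 h at room temperature with compound and CA200645 tracer (A2b 30 nM; others 100 nM). Specific binding from time-resolved FRET ratios, minus 10 μM XAC background; IC50 converted to Ki (Cheng–Prusoff).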
(In general: Time-resolved FRET reads energy transfer from a long-lived donor to a nearby acceptor.)

Assay [2] deals with human Adenosine A2a receptor (Homo sapiens (Human), UniProt P29274). The assay can be described thus: Adenosine receptor TR-FRET binding assay (A2a). Particulars: inhibition of binding of 100 nM CA200645, CHO cell membranes. In short, it runs like this:
as §1

The target in assay [3] is human Adenosine A2b receptor (Homo sapiens (Human), UniProt P29275). Kind of assay: Adenosine receptor TR-FRET binding assay (A2b). Particulars: TR-FRET, inhibition of binding of 30 nM CA200645, CHO cell membranes. In short, it runs like this: as §1
human Adenosine A2b receptor, sequence (P29275 whole entry): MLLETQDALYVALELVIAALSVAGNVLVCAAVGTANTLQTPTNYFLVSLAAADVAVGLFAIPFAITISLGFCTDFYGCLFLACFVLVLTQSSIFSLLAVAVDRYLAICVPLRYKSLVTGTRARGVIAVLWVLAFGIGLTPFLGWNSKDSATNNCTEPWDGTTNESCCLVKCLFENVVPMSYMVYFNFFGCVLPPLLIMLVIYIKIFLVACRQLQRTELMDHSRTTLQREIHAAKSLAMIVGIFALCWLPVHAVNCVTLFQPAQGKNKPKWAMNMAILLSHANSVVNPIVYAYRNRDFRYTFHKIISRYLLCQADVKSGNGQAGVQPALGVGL
Assay [4] concerns the target human Adenosine A3 receptor (Homo sapiens (Human), UniProt P0DMS8). The assay can be described thus: Adenosine receptor TR-FRET binding assay (A3). As to conditions: inhibition of binding of 100 nM CA200645, CHO cell membranes. In short, it runs like this:
as §1

The subject of the next assay is human PBMCs. The assay can be described thus: CD3/CD28 stimulated IL-2 release NECA reversal assay in human PBMCs. The class given is cell-based. As to conditions: PBMC, 1 uM NECA, 24 hours, IL-2 in culture supernatant. Summed up: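 PBMCs from citrated healthy-donor blood plated at 50,000 cells/well on 1 ug/ml CD3 antibody with 1 ug/ml CD28 antibody, 1 uM NECA and 0.003-10 μM antagonist (final), 24 h at 37° C. Supernatant IL-2 measured by MSD immunoassay; % inhibition set against no-NECA control wells as 100%.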

Assay [5] concerns CD8+T cells in human whole blood. The assay can be described thus: Measurement of pCREB in CD8+T cells in human whole blood. Particulars: 3 μM NECA, rolipram. The class given is cell-based. Summed up: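 Heparinised human whole blood pre-incubated 20 min at 37 °C with serially diluted A2a antagonists plus rolipram, then stimulated 60 min with 3 μM NECA (final). After fixation and red-cell lysis, white cells were permeabilized and stained for phospho-CREB and CD8; pCREB in CD8+ T cells measured by flow cytometry.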

The test system of assay [6] is immature monocyte-derived dendritic cells (MoDC). Kind of assay: MoDC pCREB assay. The class given is cell-based, human. Particulars: Homo sapiens, Dendritic cell; pCREB in immature MoDC, 1 μM NECA, rolipram. As to the method: Monocytes are isolated from human whole blood using CD14 microbeads (Miltenyi Biotec 130-050-201) and differentiated to immature monocyte-derived dendritic cells (MoDC) by culture for 5 days in Mo-DC Differentiation Medium (Miltenyi Biotec 130-094-812). MoDCs are seeded into fresh medium into U bottomed 96 well culture plates and pre-incubated at 37° C. with serial dilutions of A2A/B antagonists for 15 min. At the same time the cells are co-incubated with the phosphodiesterase inhibitor rolipram (final concentration of 20 µM) to amplify the subsequent pCREB response. Adenosine receptor agonist NECA is then added at 1 μM final concentration, leading to an increase in CREB phosphorylation. Following a 45 min incubation at 37° C., the cells are fixed, permeabilized and stained with directly conjugated fluorescent antibodies to phospho-CREB (Alexa Fluor 488), CD209 (PerCP-Cy5.5) and CD86 (APC). Samples are analysed by FACS to measure fluorescence in corresponding channels, and also forward and Side scatter. The population of CD209+/CD86− low cells corresponding to immature dendritic cells is gated for analysis of pCREB levels.
Approximately 5% of the analysed cells are positive for detection of pCREB in the absence of agonist stimulation, representing the background signalling of all pathways upstream of CREB. Following NECA stimulation this is increased to ˜80% pCREB+ve, and this increase is essentially fully reversible by A2B or dual A2A/B antagonists.
IC50 is represented as the point of inflection of a sigmoidal curve

human Adenosine A3 receptor, sequence (P0DMS8 whole entry): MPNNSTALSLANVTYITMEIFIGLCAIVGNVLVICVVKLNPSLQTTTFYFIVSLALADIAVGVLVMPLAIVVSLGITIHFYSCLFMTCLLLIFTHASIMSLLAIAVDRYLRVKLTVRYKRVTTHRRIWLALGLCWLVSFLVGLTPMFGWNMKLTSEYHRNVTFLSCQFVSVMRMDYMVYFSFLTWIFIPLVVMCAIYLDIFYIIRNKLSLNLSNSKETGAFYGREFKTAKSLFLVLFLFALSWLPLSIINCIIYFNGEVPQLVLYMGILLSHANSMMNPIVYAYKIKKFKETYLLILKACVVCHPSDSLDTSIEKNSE
human Adenosine A1 receptor, sequence (P30542 whole entry): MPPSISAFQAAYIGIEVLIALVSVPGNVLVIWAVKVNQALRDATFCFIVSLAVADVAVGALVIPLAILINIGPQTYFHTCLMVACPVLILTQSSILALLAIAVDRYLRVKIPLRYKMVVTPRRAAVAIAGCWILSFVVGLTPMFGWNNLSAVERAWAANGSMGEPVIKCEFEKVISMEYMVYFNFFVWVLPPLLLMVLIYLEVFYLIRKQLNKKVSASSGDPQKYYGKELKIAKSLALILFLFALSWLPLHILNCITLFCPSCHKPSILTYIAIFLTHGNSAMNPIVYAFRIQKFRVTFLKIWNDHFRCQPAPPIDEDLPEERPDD
human Adenosine A2a receptor, sequence (P29274 whole entry): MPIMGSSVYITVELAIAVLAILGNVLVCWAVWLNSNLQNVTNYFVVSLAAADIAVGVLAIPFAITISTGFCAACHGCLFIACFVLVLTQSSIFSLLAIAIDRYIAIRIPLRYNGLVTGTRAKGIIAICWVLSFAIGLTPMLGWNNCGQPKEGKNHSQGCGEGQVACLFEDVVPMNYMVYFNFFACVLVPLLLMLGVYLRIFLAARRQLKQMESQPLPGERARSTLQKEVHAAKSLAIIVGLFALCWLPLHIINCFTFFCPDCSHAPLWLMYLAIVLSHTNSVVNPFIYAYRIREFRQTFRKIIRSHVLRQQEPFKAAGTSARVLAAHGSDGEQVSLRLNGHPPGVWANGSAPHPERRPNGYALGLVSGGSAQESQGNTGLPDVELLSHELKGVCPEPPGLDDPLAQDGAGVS

For orientation: Ki means the equilibrium dissociation constant of an inhibitor or competing ligand from its target. A word on the IC50: it is the point on the concentration scale where inhibition reaches its midpoint. As for `Cc1cc(-c2sc(NC(=O)N3CC4(COC4)C3)nc2-c2cccc(C#N)c2)cc(C(C)(C)O)n1` [Example 12.2, N-[4-(3-Cyanophenyl)-5-[2-(1-hydroxy-1-methyl-ethyl)-6-methyl-4-pyridyl]thiazol-2-yl]-2-oxa-6-azaspiro[3.3]heptane-6-carboxamide], the Ki in assay [1] was 6 nM; in assay [2], 0.28 nM; in assay [3], 8.4 nM; in assay [4], 1520 nM. In addition, the concentration for half-maximal inhibition (IC50) worked out at 0.4 nM in the assay on human PBMCs, 10 nM in assay [5] and 55 nM in assay [6].

In the case of `Cc1cc(-c2sc(NC(=O)N3CCC(C#N)(CO)CC3)nc2-c2cccc(C#N)c2)cc(C)n1` [Example 4.23, 4-Cyano-N-[4-(3-cyanophenyl)-5-(2,6-dimethyl-4-pyridyl)thiazol-2-yl]-4-(hydroxymethyl)piperidine-1-carboxamide], the Ki worked out at 54 nM in assay [1], 0.2 nM in assay [2], 0.7 nM in assay [3] and 267 nM in assay [4]. Also, the half-inhibitory concentration (IC50) in the assay with human PBMCs was 0.6 nM; in assay [5], 30 nM; in assay [6] it was 20 nM.

For the compound `Cc1cc(-c2sc(NC(=O)N3CC4(COC4)C3)nc2-c2cccc(C#N)c2)cc(C)n1` [Example 4.12, N-[4-(3-Cyanophenyl)-5-(2,6-dimethyl-4-pyridyl)thiazol-2-yl]-2-oxa-6-azaspiro[3.3]heptane-6-carboxamide], the inhibition constant Ki was determined as 31 nM in assay [1], 0.26 nM in assay [2], 1.1 nM in assay [3] and 389 nM in assay [4]. Further, the IC50 in the assay on human PBMCs is 2 nM; in assay [5] it was 50 nM; in assay [6], 18 nM.

Take `Cc1cc(-c2sc(NC(=O)N3CCN(C4COC4)CC3)nc2-c2cccc(C#N)c2)cc(C)n1` [Example 4.4, N-[4-(3-Cyanophenyl)-5-(2,6-dimethyl-4-pyridyl)thiazol-2-yl]-4-(oxetan-3-yl)piperazine-1-carboxamide]: the Ki is 263 nM in assay [1], 0.86 nM in assay [2], 4.5 nM in assay [3] and 568 nM in assay [4]. Also, the IC50 is 6.2 nM in the assay with human PBMCs, 170 nM in assay [5] and 95 nM in assay [6].

Consider `Cc1cc(-c2sc(NC(=O)N3CCN(C)CC3)nc2-c2cccc(C#N)c2)cc(Cl)n1` [Example 3.6], for which the Ki in assay [1] worked out at 88 nM; in assay [2], 0.64 nM; in assay [3], 1.5 nM; in assay [4], 481 nM. The IC50 with human PBMCs is 7.5 nM; in assay [5], 990 nM; in assay [6], 51 nM.

Take `Cc1cc(-c2sc(NC(=O)N3CCC4(COC4)C3)nc2-c2cccc(C#N)c2)cc(C)n1` [Example 6.81, N-[4-(3-Cyanophenyl)-5-(2,6-dimethyl-4-pyridyl)thiazol-2-yl]-2-oxa-7-azaspiro[3.4]octane-7-carboxamide]: the Ki in assay [1] was 49 nM; in assay [2] it was 0.47 nM; in assay [3], 2.3 nM; in assay [4], 292 nM. Moreover, the results for the IC50 (in the assay on human PBMCs; in assay [5]; in assay [6]) were 7.6 nM, 230 nM and 19 nM, respectively.

On to `Cc1cc(-c2sc(NC(=O)N3CC4(COC4)C3)nc2-c2cccc(C#N)c2)cc(C(F)(F)F)n1` [Example 6.99, N-[4-(3-Cyanophenyl)-5-[2-methyl-6-(trifluoromethyl)-4-pyridyl]thiazol-2-yl]-2-oxa-6-azaspiro[3.3]heptane-6-carboxamide], for which the Ki in assay [1] came to 14 nM; in assay [2], 0.13 nM; in assay [3], 0.7 nM; in assay [4], 77 nM. The half-maximal inhibitory concentration (IC50) in the assay on human PBMCs is 0.7 nM; in assay [5], 40 nM; in assay [6] it was 8 nM.

Turning to `Cc1cc(-c2sc(NC(=O)N3CC[C@](C)(C#N)C3)nc2-c2cccc(C#N)c2)cc(C)n1` [Example 27b, (3S)-3-cyano-N-[4-(3-cyanophenyl)-5-(2,6-dimethyl-4-pyridyl)thiazol-2-yl]-3-methyl-pyrrolidine-1-carboxamide], the inhibitory constant (Ki) came to 33 nM in assay [1], 0.14 nM in assay [2], 1 nM in assay [3] and 271 nM in assay [4]. Also, the IC50 in the assay on human PBMCs is 1 nM; in assay [5] it was 40 nM; in assay [6], 4 nM.

As for `COC1(C#N)CCN(C(=O)Nc2nc(-c3cccc(C#N)c3)c(-c3cc(C)nc(C)c3)s2)CC1` [Example 4.22, 4-Cyano-N-[4-(3-cyanophenyl)-5-(2,6-dimethyl-4-pyridyl)thiazol-2-yl]-4-methoxy-piperidine-1-carboxamide], the Ki in assay [1] is 35 nM; in assay [2], 0.1 nM; in assay [3] it was 0.9 nM; in assay [4], 165 nM. Besides, the concentration for half-maximal inhibition (IC50) in the assay with human PBMCs was determined as 1.1 nM; in assay [5], 110 nM; in assay [6] it was 11 nM.

Take `Cc1cc(-c2sc(NC(=O)N3CC4(COC4)C3)nc2-c2cccc(C#N)c2)cc(C2CC2)n1` [Example 16.7]: the Ki amounted to 13 nM in assay [1], 0.13 nM in assay [2], 1.6 nM in assay [3] and 478 nM in assay [4]. For the same compound, the IC50 turned out to be 0.9 nM in the assay on human PBMCs, 60 nM in assay [5] and 14 nM in assay [6].

Take `Cc1cc(-c2sc(NC(=O)N3CC(C)(O)C3)nc2-c2cccc(C#N)c2)cc(C)n1` [Example 4.9, N-[4-(3-Cyanophenyl)-5-(2,6-dimethyl-4-pyridyl)thiazol-2-yl]-3-hydroxy-3-methyl-azetidine-1-carboxamide]: the inhibitory constant (Ki) in assay [1] is 9 nM; in assay [2] it was 0.14 nM; in assay [3] it was 1.5 nM; in assay [4], 133 nM. The IC50 amounted to 3.2 nM in the assay on human PBMCs, 50 nM in assay [5] and 26 nM in assay [6].

As to `Cc1cc(-c2sc(NC(=O)N3CCC(C)(C#N)CC3)nc2-c2cccc(C#N)c2)cc(Cl)n1` [Example 3.8], the inhibition constant Ki in assay [1] was found to be 116 nM; in assay [2], 0.09 nM; in assay [3], 0.9 nM; in assay [4], 538 nM. Moreover, the IC50 with human PBMCs amounted to 1 nM; in assay [5], 750 nM; in assay [6], 11 nM.

For `[2H]C([2H])([2H])c1cc(-c2sc(NC(=O)N3CCC(C)(C#N)CC3)nc2-c2cccc(C#N)c2)cc(C([2H])([2H])[2H])n1` [Example 28, N-[5-[2,6-Bis(trideuteriomethyl)-4-pyridyl]-4-(3-cyanophenyl)thiazol-2-yl]-4-cyano-4-methyl-piperidine-1-carboxamide], the inhibition constant (Ki) in assay [1] was found to be 30 nM; in assay [2] it was 0.09 nM; in assay [3], 1 nM; in assay [4], 381 nM. In addition, the half-maximal inhibitory concentration (IC50) came out at 0.4 nM in the assay on human PBMCs, 60 nM in assay [5] and 9 nM in assay [6].

As for `Cc1cc(-c2sc(NC(=O)N3CCC(C#N)(C#N)CC3)nc2-c2cccc(C#N)c2)cc(C)n1` [Example 4.32, 4,4-Dicyano-N-[4-(3-cyanophenyl)-5-(2,6-dimethyl-4-pyridyl)thiazol-2-yl]piperidine-1-carboxamide], the inhibition constant Ki in assay [1] came out at 26 nM; in assay [2], 0.15 nM; in assay [3], 1.1 nM; in assay [4], 457 nM. Besides, the 50% inhibitory concentration (IC50) in the assay with human PBMCs was 0.7 nM; in assay [5] it was 60 nM; in assay [6], 14 nM.

The values are drawn from patent US20230293517A1, “ANTAGONIST COMPOUNDS” (AdoRx Therapeutics Limited, priority 2020, published 2023).
